Columns and labels:
breast line MDA468 = experiment: In vitro cell culture growth assay (MTS), MDA468; format: cell-based, human; conditions: Homo sapiens, 72 h, MDA468 cells, three days after drug treatment
Summary of the method: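 Growth measured as percent of same-plate vehicle control by MTS metabolic dye conversion (A490). Breast MDA468 and prostate LNCap cells, plated a day ahead, were exposed to compounds for 3 days.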

PI3K = PI3K (Homo sapiens, UniProt P42336); experiment: Fluorescence polarization assay for PI3K; format: biochemical; conditions: PI3Kα; read-out: PI3Kα IC50;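 note: PI3K kinase reaction on PIP2 with ATP, 30-60 min, product sensed by GST-GRP with red probe in fluorescence polarization (mP), controls without enzyme and at zero time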
Sequence of PI3K (P42336 whole entry): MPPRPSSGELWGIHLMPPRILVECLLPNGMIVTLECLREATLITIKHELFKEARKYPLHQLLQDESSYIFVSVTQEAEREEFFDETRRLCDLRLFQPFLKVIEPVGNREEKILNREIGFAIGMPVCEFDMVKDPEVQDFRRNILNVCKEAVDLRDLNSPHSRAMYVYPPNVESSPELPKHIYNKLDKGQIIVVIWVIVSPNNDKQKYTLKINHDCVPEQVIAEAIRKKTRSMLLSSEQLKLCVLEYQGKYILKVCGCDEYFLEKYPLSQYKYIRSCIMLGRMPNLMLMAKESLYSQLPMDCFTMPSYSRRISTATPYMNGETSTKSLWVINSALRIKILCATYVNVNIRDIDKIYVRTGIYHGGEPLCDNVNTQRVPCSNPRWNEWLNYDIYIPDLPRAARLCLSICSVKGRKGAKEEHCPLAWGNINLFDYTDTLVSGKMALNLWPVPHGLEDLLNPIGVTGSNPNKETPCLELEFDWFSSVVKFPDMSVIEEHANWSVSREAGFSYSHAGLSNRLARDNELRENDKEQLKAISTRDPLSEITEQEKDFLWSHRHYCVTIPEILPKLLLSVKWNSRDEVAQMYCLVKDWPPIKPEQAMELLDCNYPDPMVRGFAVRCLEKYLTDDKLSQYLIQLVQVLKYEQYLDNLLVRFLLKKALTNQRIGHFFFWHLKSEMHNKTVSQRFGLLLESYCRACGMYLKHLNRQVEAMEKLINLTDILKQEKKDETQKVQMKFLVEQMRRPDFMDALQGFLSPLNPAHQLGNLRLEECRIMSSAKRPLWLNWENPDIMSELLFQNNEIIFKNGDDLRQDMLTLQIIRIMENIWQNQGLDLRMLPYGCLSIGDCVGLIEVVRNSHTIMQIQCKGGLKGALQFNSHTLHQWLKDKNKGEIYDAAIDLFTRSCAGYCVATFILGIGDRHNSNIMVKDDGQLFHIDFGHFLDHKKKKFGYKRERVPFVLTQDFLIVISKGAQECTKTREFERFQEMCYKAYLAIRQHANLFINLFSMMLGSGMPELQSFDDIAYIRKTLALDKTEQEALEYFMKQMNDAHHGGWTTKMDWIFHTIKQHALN
Sequence of PI3K (P27986 whole entry partner): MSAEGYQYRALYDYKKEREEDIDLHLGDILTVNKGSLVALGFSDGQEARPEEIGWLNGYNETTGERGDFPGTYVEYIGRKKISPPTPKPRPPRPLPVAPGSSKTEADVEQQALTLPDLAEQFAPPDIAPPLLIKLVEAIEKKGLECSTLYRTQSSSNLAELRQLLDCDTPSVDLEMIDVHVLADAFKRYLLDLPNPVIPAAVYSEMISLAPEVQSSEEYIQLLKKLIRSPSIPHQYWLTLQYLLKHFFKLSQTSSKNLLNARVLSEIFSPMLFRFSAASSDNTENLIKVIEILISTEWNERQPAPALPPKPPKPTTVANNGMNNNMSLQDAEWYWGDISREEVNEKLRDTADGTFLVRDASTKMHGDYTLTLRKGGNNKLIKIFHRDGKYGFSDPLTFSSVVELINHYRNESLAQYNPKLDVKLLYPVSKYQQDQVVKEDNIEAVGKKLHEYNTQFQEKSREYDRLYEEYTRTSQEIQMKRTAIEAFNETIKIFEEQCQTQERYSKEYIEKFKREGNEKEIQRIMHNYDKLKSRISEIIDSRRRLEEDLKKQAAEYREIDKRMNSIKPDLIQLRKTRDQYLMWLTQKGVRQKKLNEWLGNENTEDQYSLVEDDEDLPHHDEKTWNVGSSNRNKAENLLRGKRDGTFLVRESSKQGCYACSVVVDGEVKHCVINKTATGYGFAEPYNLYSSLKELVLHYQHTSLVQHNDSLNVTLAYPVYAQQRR

prostate line LNCap = experiment: In vitro cell culture growth assay (MTS), LNCap; format: cell-based, human; conditions: Homo sapiens, LNCaP, 72 h, LNCap cells, three days after drug treatment;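 note: viable cell density read by absorbance at 490 nm, growth expressed as percent of vehicle-treated cells on the same plate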

IC50 (PI3K) [nM]	IC50 (prostate line LNCap) [nM]	Structure (SMILES)	IC50 (breast line MDA468) [nM]
2910	10000	c1ccc(CN2CCC(n3ncc4c(N5CCOCC5)nc(-c5cc6ccccc6s5)nc43)CC2)cc1 [Example 67]	12000
10500	3100	CN(C)S(=O)(=O)c1cccc(-c2nc(N3CCOCC3)c3cnn(C4CCN(Cc5ccccc5)CC4)c3n2)c1 [Example 69]	4000
3870	3000	O=C(NC1CCCC1)c1ccc(-c2nc(N3CCOCC3)c3cnn(C4CCN(Cc5ccccc5)CC4)c3n2)cc1 [Example 70]	15000
520	9500	c1ccc(CN2CCC(n3ncc4c(N5CCOCC5)nc(-c5cccc6cc[nH]c56)nc43)CC2)cc1 [Example 72]	6000
522	900	Oc1cccc(CN2CCC(n3ncc4c(N5CCOCC5)nc(-c5ccc6[nH]ccc6c5)nc43)CC2)c1 [Example 76]	1000
918	1200	c1cc2cc(-c3nc(N4CCOCC4)c4cnn(C5CCCCC5)c4n3)ccc2[nH]1 [Example 90, 1-cyclohexyl-6-(1H-indol-5-yl)-4-morpholin-4-yl-1H-pyrazolo[3,4-d]pyrimidine]	3200
35	410	Oc1cccc(-c2nc(N3CCOCC3)c3cnn(C4CCCCC4)c3n2)c1 [Example 91, 3-(1-cyclohexyl-4-morpholin-4-yl-1H-pyrazolo[3,4-d]pyrimidin-6-yl)phenol]	2500
878	630	CC(=O)Nc1ccc(-c2nc(N3CCOCC3)c3cnn(C4CCN(C(=O)c5cccnc5)CC4)c3n2)cc1 [Example 159, N-(4-{4-morpholin-4-yl-1-[1-(pyridin-3-ylcarbonyl)piperidin-4-yl]-1H-pyrazolo[3,4-d]pyrimidin-6-yl}phenyl)acetamide]	2500
366	1000	Fc1ccc(CN2CCC(n3ncc4c(N5CCOCC5)nc(-c5ccc6[nH]ccc6c5)nc43)CC2)cn1 [Example 172, 1-{1-[(6-fluoropyridin-3-yl)methyl]piperidin-4-yl}-6-(1H-indol-5-yl)-4-morpholin-4-yl-1H-pyrazolo[3,4-d]pyrimidine]	1700
262	1200	Brc1ccc(CN2CCC(n3ncc4c(N5CCOCC5)nc(-c5ccc6[nH]ccc6c5)nc43)CC2)cn1 [Example 173, 1-{1-[(6-bromopyridin-3-yl)methyl]piperidin-4-yl}-6-(1H-indol-5-yl)-4-morpholin-4-yl-1H-pyrazolo[3,4-d]pyrimidine]	2700
1690	450	O=C(c1cccnc1Cl)N1CCC(n2ncc3c(N4CCOCC4)nc(-c4ccc5[nH]ccc5c4)nc32)CC1 [Example 195, 1-{1-[(2-chloropyridin-3-yl)carbonyl]piperidin-4-yl}-6-(1H-indol-5-yl)-4-morpholin-4-yl-1H-pyrazolo[3,4-d]pyrimidine]	1000
1280	750	O=C(c1ccc(Cl)nc1)N1CCC(n2ncc3c(N4CCOCC4)nc(-c4ccc5[nH]ccc5c4)nc32)CC1 [Example 196, 1-{1-[(6-chloropyridin-3-yl)carbonyl]piperidin-4-yl}-6-(1H-indol-5-yl)-4-morpholin-4-yl-1H-pyrazolo[3,4-d]pyrimidine]	3000
1650	700	O=C(c1ncccc1O)N1CCC(n2ncc3c(N4CCOCC4)nc(-c4ccc5[nH]ccc5c4)nc32)CC1 [Example 198, 2-({4-[6-(1H-indol-5-yl)-4-morpholin-4-yl-1H-pyrazolo[3,4-d]pyrimidin-1-yl]piperidin-1-yl}carbonyl)pyridin-3-ol]	4000
2940	450	Cc1ccncc1C(=O)N1CCC(n2ncc3c(N4CCOCC4)nc(-c4ccc5[nH]ccc5c4)nc32)CC1 [Example 199, 6-(1H-indol-5-yl)-1-{1-[(4-methylpyridin-3-yl)carbonyl]piperidin-4-yl}-4-morpholin-4-yl-1H-pyrazolo[3,4-d]pyrimidine]	1800
2390	750	Cc1ncccc1C(=O)N1CCC(n2ncc3c(N4CCOCC4)nc(-c4ccc5[nH]ccc5c4)nc32)CC1 [Example 200, 6-(1H-indol-5-yl)-1-{1-[(2-methylpyridin-3-yl)carbonyl]piperidin-4-yl}-4-morpholin-4-yl-1H-pyrazolo[3,4-d]pyrimidine]	2000
2100	400	Cc1ccc(C(=O)N2CCC(n3ncc4c(N5CCOCC5)nc(-c5ccc6[nH]ccc6c5)nc43)CC2)cn1 [Example 202, 6-(1H-indol-5-yl)-1-{1-[(6-methylpyridin-3-yl)carbonyl]piperidin-4-yl}-4-morpholin-4-yl-1H-pyrazolo[3,4-d]pyrimidine]	2000
26	2500	Oc1cccc(-c2nc(N3CCOCC3)c3cn[nH]c3n2)c1 [Example 204, 3-(4-morpholin-4-yl-1H-pyrazolo[3,4-d]pyrimidin-6-yl)phenol]	8000
108	200	Nc1ccc(-c2nc(N3CCOCC3)c3cnn(C4CCN(Cc5cccnc5)CC4)c3n2)cn1 [Example 210, 5-{4-morpholin-4-yl-1-[1-(pyridin-3-ylmethyl)piperidin-4-yl]-1H-pyrazolo[3,4-d]pyrimidin-6-yl}pyridin-2-amine]	1100
106	370	CCCCNC(=O)Nc1ccc(-c2nc(N3CCOCC3)c3cnn(C4CCN(Cc5cccnc5)CC4)c3n2)cc1 [Example 212, 1-Butyl-3-(4-{4-morpholin-4-yl-1-[1-(pyridin-3-ylmethyl)piperidin-4-yl]-1H-pyrazolo[3,4-d]pyrimidin-6-yl}phenyl)urea]	1400
514	355	COC(=O)Nc1ccc(-c2nc(N3CCOCC3)c3cnn(C4CCN(C(=O)c5cccnc5)CC4)c3n2)cc1 [Example 213, methyl (4-{4-morpholin-4-yl-1-[1-(pyridin-3-ylcarbonyl)piperidin-4-yl]-1H-pyrazolo[3,4-d]pyrimidin-6-yl}phenyl)carbamate]	1200
109	570	Nc1ccc(-c2nc(N3CCOCC3)c3cnn(C4CCN(C(=O)c5cccnc5)CC4)c3n2)cn1 [Example 214, 5-{4-morpholin-4-yl-1-[1-(pyridin-3-ylcarbonyl)piperidin-4-yl]-1H-pyrazolo[3,4-d]pyrimidin-6-yl}pyridin-2-amine]	1500
37	650	Nc1ncc(-c2nc(N3CCOCC3)c3cnn(C4CCN(C(=O)c5cccnc5)CC4)c3n2)cn1 [Example 215, 5-{4-morpholin-4-yl-1-[1-(pyridin-3-ylcarbonyl)piperidin-4-yl]-1H-pyrazolo[3,4-d]pyrimidin-6-yl}pyrimidin-2-amine]	1300
446	400	CCCCNC(=O)Nc1ccc(-c2nc(N3CCOCC3)c3cnn(C4CCN(C(=O)c5cccnc5)CC4)c3n2)cc1 [Example 216, 1-butyl-3-(4-{4-morpholin-4-yl-1-[1-(pyridin-3-ylcarbonyl)piperidin-4-yl]-1H-pyrazolo[3,4-d]pyrimidin-6-yl}phenyl)urea]	1500
3300	750	COC(=O)N1CCC(n2ncc3c(N4CCOCC4)nc(-c4ccc5[nH]ccc5c4)nc32)CC1 [Example 244, methyl 4-[6-(1H-indol-5-yl)-4-morpholin-4-yl-1H-pyrazolo[3,4-d]pyrimidin-1-yl]piperidine-1-carboxylate]	2100
341	220	CCCNC(=O)Nc1ccc(-c2nc(N3CCOCC3)c3cnn(C4CCN(Cc5ccccc5)CC4)c3n2)cc1 [Example 254, 1-{4-[1-(1-benzylpiperidin-4-yl)-4-morpholin-4-yl-1H-pyrazolo[3,4-d]pyrimidin-6-yl]phenyl}-3-propylurea]	1500
385	700	O=C(NCC1CC1)Nc1ccc(-c2nc(N3CCOCC3)c3cnn(C4CCN(Cc5ccccc5)CC4)c3n2)cc1 [Example 262, 1-{4-[1-(1-benzylpiperidin-4-yl)-4-morpholin-4-yl-1H-pyrazolo[3,4-d]pyrimidin-6-yl]phenyl}-3-(cyclopropylmethyl)urea]	3000
268	250	C=CCNC(=O)Nc1ccc(-c2nc(N3CCOCC3)c3cnn(C4CCN(Cc5ccccc5)CC4)c3n2)cc1 [Example 263, 1-allyl-3-{4-[1-(1-benzylpiperidin-4-yl)-4-morpholin-4-yl-1H-pyrazolo[3,4-d]pyrimidin-6-yl]phenyl}urea]	1800
14	2000	NCCNC(=O)Nc1ccc(-c2nc(N3CCOCC3)c3cnn(C4CCN(Cc5ccccc5)CC4)c3n2)cc1 [Example 267, 1-(2-aminoethyl)-3-{4-[1-(1-benzylpiperidin-4-yl)-4-morpholin-4-yl-1H-pyrazolo[3,4-d]pyrimidin-6-yl]phenyl}urea]	2700
364	80	O=C(NCCCO)Nc1ccc(-c2nc(N3CCOCC3)c3cnn(C4CCN(Cc5ccccc5)CC4)c3n2)cc1 [Example 269, 1-{4-[1-(1-benzylpiperidin-4-yl)-4-morpholin-4-yl-1H-pyrazolo[3,4-d]pyrimidin-6-yl]phenyl}-3-(3-hydroxypropyl)urea]	700
273	680	CCONC(=O)Nc1ccc(-c2nc(N3CCOCC3)c3cnn(C4CCN(Cc5ccccc5)CC4)c3n2)cc1 [Example 287, 1-{4-[1-(1-benzylpiperidin-4-yl)-4-morpholin-4-yl-1H-pyrazolo[3,4-d]pyrimidin-6-yl]phenyl}-3-ethoxyurea]	200

Reference: patent US20080234262A1 (Wyeth, priority 2007, published 2008)
